Source: patent US4141974A, “Veterinary method employing certain aureolic acid compounds” (Imperial Chemical Industries Limited, priority 1976, dated 1979)

Assays:
chickens [1] = experiment: Chicken growth trial, chromomycin A3 (Example 12); assay type: in vivo
Source text: (§1) Groups of 20 randomised 1-day old chickens were place in small floor pens, bedded with wood shavings and provided with automatic drinking fountains. The birds in 16 randomly chosen such pens were fed for 6 days on a nutritionally balanced control diet containing no known growth promoter, and the birds in other pens (four pens per treatment diet) were fed for the same period on the same basal diet to which the indicated weight of mixed mithramycins obtained as in Example 2 or 3, or a known chicken growth promoter, penicillin or nitrovin as a positive control, was added. At the end of the test period, the mean weight per bird in the control group and each test group was determined and the percentage weight increase for each test group as compared with the control group was calculated. The following results were obtained:
The procedure described in Example 4 was repeated, using chromomycin A3, obtained from Takeda Chemical Industries Ltd., Osaka, Japan, instead of the mixed mithramycins.

chickens [2] = experiment: Chicken growth trial, 1-day old chickens, 6 days (Example 4); assay type: in vivo; details: for Mean final weight per bird: * significant at p<0.001
Source text: as §1, with “calculated.” for “calculated. The following results were obtained:”

chickens [3] = experiment: Chicken growth trial, pen of 20 birds (Example 5); assay type: in vivo; details: for Mean final weight-20 birds: mean total weight of a pen of 20 birds
Source text: as §1
In a further growth trial, the procedure described in Example 4 was repeated. In this case, the weights are expressed as the mean total weight of a pen of 20 birds.

chickens [4] = experiment: Chicken growth trial, magnesium chelate of Example 2 (Example 8); assay type: in vivo; details: * P<0.001
Experimental: Groups of 20 randomised 1-day old chickens were place in small floor pens, bedded with wood shavings and provided with automatic drinking fountains. […] At the end of the test period, the mean weight per bird in the control group and each test group was determined and the percentage weight increase for each test group as compared with the control group was calculated.

chickens [5] = experiment: Chicken growth trial, mixed mithramycins from Streptomyces argillaceus (Example 7); assay type: in vivo
Source text: as §1
The procedure described in Example 4 was repeated, using the mixed mithramycins obtained by culturing Streptomyces argillaceus A.T.C.C. 12956 in known manner, and the following results were obtained: […]

chickens [6] = experiment: Chicken growth trial, magnesium chelate of mithramycin A from S. argillaceus (Example 9); assay type: in vivo; details: * P<0.001
Source text: The procedure described in Example 4 was repeated, using the magnesium chelate of mithramycin A, obtained in known manner from fermentation of S. argillaceus A.T.C.C.

pigs = experiment: Pig growth trial, 9 weeks (Example 11); assay type: in vivo
Source text: Seventy-two pigs weighing approximately 20kg. each were allocated into 8 matched treatment groups of 9 pigs, on the basis of sex and live weight. Each treatment group was allocated to one particular diet, and each animal in each group was fed individually on its appropriate diet, accurately weighed according to a feeding scale based on live weight, and adjusted weekly. The daily live weight gain in gammes (DLWG) and food conversion ratio (FCR -- the ratio of kg. feed per kg. of live weight gain) were determined for each group at the end of a 9 week trial period.

discard cockerels = experiment: Growth trial in discard cockerels, 4 weeks (Example 10); assay type: in vivo, chicken; details: 10 ppm in basal diet
Source text: as §1
The procedure described in Example 4 was repeated using 4 pens each of 30 discard cockerels for each diet, and allowing the trial to run for 4 weeks.

[7] = 10 ppm in basal diet, nitrovin * p<0.001, chromomycin A3 *** p<0.05

**Q.** What does the source list for `CO[C@@H]1[C@H](O)C[C@@H](O[C@@H]2C[C@H](Oc3cc4cc5c(c(O)c4c(O)c3C)C(=O)[C@@H](O[C@H]3C[C@@H](O[C@H]4C[C@@H](O[C@H]6C[C@](C)(O)[C@@H](OC(C)=O)[C@H](C)O6)[C@H](O)[C@@H](C)O4)[C@H](O)[C@@H](C)O3)[C@H]([C@H](OC)C(=O)[C@@H](O)[C@@H](C)O)C5)O[C@H](C)[C@@H]2OC(C)=O)O[C@@H]1C` [chromomycin A3]?
**A.** % effect v. control (chickens [1]; 5 ppm in basal diet): 7.3%; Mean final weight per bird (chickens [1]; 5 ppm in basal diet, ** significant at p<0.01): 44.51 g; % effect v. control (chickens [1]; 10 ppm in basal diet): 5.4%; Mean final weight per bird (chickens [1]; [7]): 43.68 g

**Q.** Which results are given for `CC1(C)S[C@@H]2[C@H](NC(=O)Cc3ccccc3)C(=O)N2[C@H]1C(=O)O` [penicillin]?
**A.** % effect v. control (weight increase) (chickens [2]; 25 ppm in basal diet): 11.6%; Mean final weight per bird (chickens [2]; 25 ppm in basal diet): 42.57 g; % effect v. control (chickens [3]; 25 ppm in basal diet): 18.25%; Mean final weight-20 birds (chickens [3]; 25 ppm in basal diet): 876 g; % effect v. control (chickens [4]; 25 ppm in basal diet): 16.1%; Mean final weight per bird (chickens [4]; 25 ppm in basal diet): 47.95 g; % effect v. control (chickens [5]; 25 ppm in basal diet): 18.8%; Mean final weight per birds (chickens [5]; 25 ppm in basal diet): 47.6 g; % effect v. control (chickens [1]; 25 ppm in basal diet): 12.7%; Mean final weight per bird (chickens [1]; 25 ppm in basal diet, * significant at p<0.001): 46.73 g; % effect v. control (chickens [6]; 25 ppm in basal diet): 16.1%; Mean final weight per bird (chickens [6]; 25 ppm in basal diet): 47.95 g

**Q.** How did the “FCR (food conversion ratio)” value (pigs; high copper diet, 20 ppm, * significant at p<0.05) turn out when `COC(=O)N/N=C/c1c[n+]([O-])c2ccccc2[n+]1[O-]` [carbadox] was run?
**A.** 2.184 kg. feed per kg. of live weigh

**Q.** And the “DLWG (daily live weight gain)” value (pigs; high copper diet, 20 ppm, ** significant at p<0.01)?
**A.** 672.7 gammes

**Q.** What about the “FCR (food conversion ratio)” value (pigs; low copper diet, 20 ppm) of the same compound?
**A.** 2.292 kg. feed per kg. of live weigh

**Q.** And the “DLWG (daily live weight gain)” value (pigs; low copper diet, 20 ppm, * significant at p<0.05)?
**A.** 630.6 gammes

**Q.** How did the “% effect v. control (weight increase)” value (chickens [2]; 10 ppm in basal diet) turn out when `N=C(N)NN=C(/C=C/c1ccc([N+](=O)[O-])o1)/C=C/c1ccc([N+](=O)[O-])o1` [nitrovin] was run?
**A.** 12.7%

**Q.** And the “Mean final weight per bird” value (chickens [2]; 10 ppm in basal diet)?
**A.** 42.99 g

**Q.** And the “% effect v. control” value (chickens [3]; 10 ppm in basal diet)?
**A.** 11.6%

**Q.** And the “Mean final weight-20 birds” value (chickens [3]; 10 ppm in basal diet)?
**A.** 826 g

**Q.** What about the “% effect v. control” value (chickens [4]; 10 ppm in basal diet) of the same compound?
**A.** 10.6%

**Q.** What about the “Mean final weight per bird” value (chickens [4]; 10 ppm in basal diet) of the same compound?
**A.** 45.67 g

**Q.** What about the “% effect v. control” value (chickens [5]; 10 ppm in basal diet) of the same compound?
**A.** 12.9%

**Q.** And the “Mean final weight per birds” value (chickens [5]; 10 ppm in basal diet)?
**A.** 45.2 g

**Q.** What about the “% effect v. control” value (chickens [1]; 10 ppm in basal diet) of the same compound?
**A.** 9.7%

**Q.** What about the “Mean final weight per bird” value (chickens [1]; [7]) of the same compound?
**A.** 45.46 g

**Q.** And the “DLWG (daily live weight gain)” value (pigs; high copper diet, 10 ppm)?
**A.** 579.2 gammes

**Q.** What about the “FCR (food conversion ratio)” value (pigs; high copper diet, 10 ppm) of the same compound?
**A.** 2.308 kg. feed per kg. of live weigh

**Q.** What about the “DLWG (daily live weight gain)” value (pigs; low copper diet, 10 ppm) of the same compound?
**A.** 567.0 gammes

**Q.** And the “FCR (food conversion ratio)” value (pigs; low copper diet, 10 ppm)?
**A.** 2.381 kg. feed per kg. of live weigh

**Q.** And the Food conversion ratio (discard cockerels; ** significant at p<0.001)?
**A.** 1.800

**Q.** And the “Mean final weight per bird” value (discard cockerels; mixed mithramycins * significant at p<0.01, nitrovin unmarked)?
**A.** 339 g

**Q.** What about the “% effect v. control” value (chickens [6]; 10 ppm in basal diet) of the same compound?
**A.** 10.6%

**Q.** What about the “Mean final weight per bird” value (chickens [6]; 10 ppm in basal diet) of the same compound?
**A.** 45.67 g
